These results are taken from ChEMBL document CHEMBL5126656, “Callintegers A and B, Unusual Tricyclo[4.4.0.09,10]tetradecane Clerodane Diterpenoids from Callicarpa integerrima with Inhibitory Effects on NLRP3 Inflammasome Activation” (J Nat Prod, 2022).

Assay [1] addresses NACHT, LRR and PYD domains-containing protein 3 (Mus musculus) (UniProt Q8R4B8). Description: Inhibition of NLRP3 inflammasome activation in LPS/nigericin-treated mouse J774A.1 cells assessed as decrease in pyroptosis at 20 uM pretreated for 0.5 hrs followed by stimulation with nigericin for 1 hr by fluorescent microscopic analysis. Type of assay: cell-based. Particulars: J774.A1, time 1.5 hrs.

Assay [2] concerns the target NACHT, LRR and PYD domains-containing protein 3 (Mus musculus, UniProt Q8R4B8). The experiment in a line: Inhibition of NLRP3 inflammasome activation in LPS/nigericin-treated mouse J774A.1 cells assessed as decrease in IL-1beta level pretreated for 0.5 hrs followed by stimulation with nigericin for 1 hr by ELISA. Type of assay: cell-based, J774.A1.
In assay [3] the target is NACHT, LRR and PYD domains-containing protein 3 (Mus musculus) (UniProt Q8R4B8). The experiment in a line: Inhibition of NLRP3 inflammasome activation in LPS/nigericin-treated mouse J774A.1 cells assessed as decrease in IL-1beta level pretreated for 0.5 hrs followed by stimulation with nigericin for 1 hr by Western blot analysis. Type of assay: cell-based. The following applies: J774.A1, time 1.5 hrs.

Assay [4] has the same target. Description: Inhibition of NLRP3 inflammasome activation in LPS/nigericin-treated mouse J774A.1 cells assessed as decrease in caspase-1 level pretreated for 0.5 hrs followed by stimulation with nigericin for 1 hr by Western blot analysis. It is filed as cell-based. The following applies: J774.A1, time 1.5 hrs. (Immunoblotting shows a protein as a band on a membrane.)

Active and inactive are the calls of the source. The rule behind the calls is not given here.

NACHT, LRR and PYD domains-containing protein 3 (Mus musculus), sequence (Q8R4B8 whole entry, the tested form may be a part): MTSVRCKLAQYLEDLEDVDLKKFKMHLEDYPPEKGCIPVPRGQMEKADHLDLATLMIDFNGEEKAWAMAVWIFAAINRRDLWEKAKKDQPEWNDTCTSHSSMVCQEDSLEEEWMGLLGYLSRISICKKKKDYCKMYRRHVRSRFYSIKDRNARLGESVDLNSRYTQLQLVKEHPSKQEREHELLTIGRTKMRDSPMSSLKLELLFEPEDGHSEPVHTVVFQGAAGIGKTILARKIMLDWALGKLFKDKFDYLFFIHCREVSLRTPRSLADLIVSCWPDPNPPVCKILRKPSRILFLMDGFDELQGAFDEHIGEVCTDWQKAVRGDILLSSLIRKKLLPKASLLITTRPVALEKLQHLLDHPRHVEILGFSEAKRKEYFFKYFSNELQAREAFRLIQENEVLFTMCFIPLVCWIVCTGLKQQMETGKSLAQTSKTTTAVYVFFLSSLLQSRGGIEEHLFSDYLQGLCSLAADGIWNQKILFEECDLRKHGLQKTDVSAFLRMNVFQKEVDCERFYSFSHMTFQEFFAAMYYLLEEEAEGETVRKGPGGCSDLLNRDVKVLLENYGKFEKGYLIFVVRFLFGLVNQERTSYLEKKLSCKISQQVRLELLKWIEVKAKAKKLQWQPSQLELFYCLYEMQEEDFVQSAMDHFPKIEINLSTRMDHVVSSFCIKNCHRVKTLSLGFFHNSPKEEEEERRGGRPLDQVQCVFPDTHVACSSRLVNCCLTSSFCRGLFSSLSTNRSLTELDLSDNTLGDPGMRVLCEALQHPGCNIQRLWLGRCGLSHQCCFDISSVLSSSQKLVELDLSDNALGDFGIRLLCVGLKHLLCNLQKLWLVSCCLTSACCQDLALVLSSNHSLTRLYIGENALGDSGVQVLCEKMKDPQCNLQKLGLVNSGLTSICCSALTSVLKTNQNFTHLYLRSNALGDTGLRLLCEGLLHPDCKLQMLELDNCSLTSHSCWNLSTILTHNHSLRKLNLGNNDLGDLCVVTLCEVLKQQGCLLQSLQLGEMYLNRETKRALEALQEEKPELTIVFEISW
NACHT, LRR and PYD domains-containing protein 3, sequence (Q8R4B8 whole entry, the tested form may be a part): as above

Regarding `C=C1[C@@H](OC(C)=O)CC[C@]23C=C(C=O)[C@@H](OC(C)=O)C[C@@]2(C)[C@H](C)CC[C@@]13C`, the inhibition entry in assay [1], in assay [3] and in assay [4] was “Active” in each case. Besides, in assay [2], the IC50 (usually the concentration that inhibits the measured activity by half) is 5500 nM.

Take `CC(C)(O)c1coc(S(=O)(=O)NC(=O)Nc2c3c(cc4c2CCC4)CCC3)c1`: in assay [2], the half-inhibitory concentration (IC50) worked out at 23.1 nM.
